According to US20090226901A1, “Method of evaluating or selecting agents for preventing or improving pigmented spots” (Kao Corporation, priority 2008, published 2009):

Assays:
[1] = system: SCF (KITLG) gene; test: SCF (KITLG) gene expression in cultured human epidermal keratinocytes, quantitative PCR; format: cell-based; conditions: cultured epidermal cells
Description: (§1) Human epidermal cells derived from neonatal foreskin were purchased from Kurabo Industries Ltd., and were precultured in a serum-free basal growth medium (EpiLife, product of Kurabo Industries Ltd.) in an atmosphere of 5% (v/v) CO2 at 37° C. The thus-precultured epidermal cells were inoculated into a 6-well culture plate (product of Falcon) (1.0×10^5 cells/well). Twenty-four hours thereafter, the cells were cultured in a growth medium without including BPE (bovine pituitary gland extract) and hEGF (human epidermal growth factor), and 24 hours thereafter, 5-fluorouracil (5-FU, product of Calbiochem), which is a conventionally known p53 activator, was added at a concentration of 1 or 10 μg/mL. After 48-hour treatment, total RNA was extracted by use of TRIzol® Reagent (product of Invitrogen Corporation). Specifically, each well of the culture plate was washed with PBS, and TRIzol® Reagent (1 mL) was added to the well. […]
(§2) The thus-extracted total RNA was subjected to reverse transcription to synthesize cDNA, and the thus-synthesized cDNA was employed for gene expression analysis through quantitative PCR using TaqMan® probe. In the present Example, specifically, expression levels of SCF (KITLG) gene (Assay ID: Hs00241497_m1) and endothelin-1 gene (Assay ID: Hs00174961_m1) were measured. […]

[2] = system: HCT116 cells; conditions: HCT116 human colon cancer cell line; Cell, 124, 207-219, 2006; cited from earlier work
[3] = system: endothelin-1 gene; test: endothelin-1 gene expression in cultured human epidermal keratinocytes, quantitative PCR; format: cell-based; conditions: cultured epidermal cells
Description: as §1, §2

[4] = system: three-dimensional cultured skin model (MEL-300A); test: melanin content of three-dimensional cultured skin model (MEL-300A); format: cell-based, human; conditions: culturing for 14 days, absorbance at 405 nm, relative to control (100%), FIG. 5
Description: A three-dimensional cultured skin model (MEL-300A) was purchased from Kurabo Industries Ltd. Immediately after the product had been obtained, a tissue cup was transferred into a 6-well culture plate (product of Falcon), and cultured overnight in a long-term maintenance medium (EPI-100-NMM-113, product of Kurabo Industries Ltd.) (1 mL), in an atmosphere of […] at 37° C. Subsequently, pifithrin-α (PFT), which is a conventionally known p53 inhibitor, was added, followed by culturing for 14 days. Culturing was carried out by allowing the tissue cup to stand still on a sterilized stainless steel washer (product of Kurabo Industries Ltd.) and by use of a long-term maintenance medium (5 mL). Medium was exchanged every three days. After culturing, skin tissue was removed from the tissue cup with tweezers, and then washed thrice with PBS, once with 5% (v/v) trichloroacetic acid, and once with a mixture of diethyl ether and ethanol (1:3 by volume). Thereafter, the thus-washed skin tissue was incubated at 50° C. for two hours, to thereby dry the tissue. Subsequently, the tissue was dissolved in 2N aqueous sodium hydroxide solution (2N) (200 μL), followed by centrifugation at 15,000 rpm for 15 minutes. Thereafter, the culture supernatant was recovered, and absorbance was measured at 405 nm, to thereby calculate the melanin content in the tissue.

[5] = system: tyrosinase gene; test: tyrosinase gene expression in organ-cultured skin tissue of pigmentatio petaloides actinica, RT-PCR; format: cell-based, human; conditions: 10 μM PFT, 72 hours organ culture, epidermis, relative to control spot sample, FIG. 6
Text: (§3) Through a contract laboratory of Stephens & Associates (Carrollton, Tex.), subjects having spots were recruited. A dermatologist, contractor of the laboratory, collected samples of skin tissue with pigmentatio petaloides actinica from the shoulder (at two sites for each subject) in two subjects at with a biopsy trepan (diameter: 4 mm). Thereafter, the thus-collected skin biopsy samples were immersed in Dulbecco's modified Eagle's medium (DMEM), and transported to the Cincinnati branch of Biological Science Americas Laboratories while being maintained at about 4 to 10° C. […]
(§4) Thereafter, total RNA was extracted by use of RNeasy micro kit (Qiagen), and cDNA was synthesized through a customary method by means of ThermoScript RT-PCR Systems (Invitrogen, Carlsbad, Calif.). Probes specific to tyrosinase mRNA, SCF (KITLG) mRNA, and endothelin-1 mRNA were obtained from TaqMan® Gene Expression Assays (Applied Biosystems) (Assay IDs: Hs00165976_m1, Hs00241497_m1, and Hs00174961_ml), and real-time quantitative RT-PCR was carried out by means of ABI PRISM 7300 sequence detection system (Applied Biosystems). […] The expression level of each gene in the PFT-treated spot sample was calculated relative to that of the gene in a control spot sample (taken as 1).

[6] = system: endothelin-1 gene; test: endothelin-1 gene expression in organ-cultured skin tissue of pigmentatio petaloides actinica, RT-PCR; format: cell-based, human; conditions: 10 μM PFT, 72 hours organ culture, epidermis, relative to control spot sample, FIG. 6
Text: as §3, §4

[7] = system: SCF (KITLG) gene; test: SCF (KITLG) gene expression in organ-cultured skin tissue of pigmentatio petaloides actinica, RT-PCR; format: cell-based, human; conditions: 10 μM PFT, 72 hours organ culture, epidermis, relative to control spot sample, FIG. 6
Text: as §3, §4

[8] = 5-FU 1 or 10 μg/mL, 48-hour treatment, FIG. 3
[9] = PFT 1 or 10 μM, 24-hours culturing, FIG. 4

## O=c1[nH]cc(F)c(=O)[nH]1 [5-fluorouracil]
[1]; [8]
  expression of SCF (KITLG) gene: significantly induced
[2]
  expression level of SCF (KITLG) gene: induced
[3]; [8]
  expression of endothelin-1 gene: significantly induced

## Cc1ccc(C(=O)Cn2c3c(sc2=N)CCCC3)cc1 [pifithrin-α]
[4]
  melanin contents: decreased the melanin contents of the three-dimensional cultured skin model in a dose-dependent manner
[5]
  expression level of tyrosinase gene: significantly decreased
[6]
  expression of endothelin-1 gene: tended to be significantly decreased
[1]; [9]
  expression of SCF (KITLG) gene: significantly decreased
[3]; [9]
  expression of endothelin-1 gene: significantly decreased
[7]
  expression level of SCF (KITLG) gene: significantly decreased
